Results as given in BindingDB's records for doi:10.1111/cbdd.12840 (Miranda House, 2017).

Target: T1, Putative FAD-containing monooxygenase MymA (Mycobacterium tuberculosis (strain ATCC 25618 / H37Rv), UniProt P9WNF7)
T1 sequence (P9WNF7 whole entry): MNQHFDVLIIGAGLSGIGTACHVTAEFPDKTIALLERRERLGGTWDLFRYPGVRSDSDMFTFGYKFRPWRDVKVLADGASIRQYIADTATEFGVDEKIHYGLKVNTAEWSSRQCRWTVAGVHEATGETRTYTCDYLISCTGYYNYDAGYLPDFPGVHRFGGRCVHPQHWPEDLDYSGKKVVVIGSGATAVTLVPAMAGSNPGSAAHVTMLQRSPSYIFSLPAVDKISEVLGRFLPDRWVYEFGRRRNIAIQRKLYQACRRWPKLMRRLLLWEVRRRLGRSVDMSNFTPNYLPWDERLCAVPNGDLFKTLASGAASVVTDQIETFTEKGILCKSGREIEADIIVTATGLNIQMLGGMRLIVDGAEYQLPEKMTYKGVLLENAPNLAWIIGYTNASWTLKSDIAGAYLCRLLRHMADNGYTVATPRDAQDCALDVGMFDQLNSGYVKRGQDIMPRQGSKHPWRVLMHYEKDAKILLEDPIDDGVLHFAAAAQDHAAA
Experiment: MymA Inhibition Assay
Procedure: Inhibition of MymA activity by INH was checked using different concentrations (0-12 um) of INH, 100 um of trimeth-ylamine and 5 mg of MymA along with the other components in the enzyme assay as described above.

Work on `NNC(=O)c1ccncc1` [4-pyridinecarbohydrazide(Isoniazid)] yielded an IC50 of 4.9 µM.
